The source made the active and inactive calls.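 Rule for the calls: active = EC50 under 10 microM for raising side scatter, a sign of cell differentiation; inactive = the rest, including fits that never converged.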

The test system of this assay is LNCaP side scatter shift, flow cytometry, 4 days. Kind of assay: activators of LNCaP prostate cell differentiation, dose response, flow cytometry, side scatter granularity (AID 1198).
`N=c1n(CCN2CCCCC2)c2ccccc2n1CC(O)COc1ccccc1` (stereo not drawn): the EC50 is 0.994 µM. On to `COc1ccc(CCn2c(=N)c(C(=O)NCc3ccco3)cc3c(=O)n4ccccc4nc32)cc1`, for which the EC50 is 7.49 µM. On to `CN1CCN(CCCNC(=O)c2cc3c(-c4ccc(Cl)cc4)nn(C)c3s2)CC1`, for which the EC50 was 6.41 µM. Turning to `CCN1CCN(CCNC(=O)C2CCN(Cc3nc(-c4ccc(Cl)cc4)oc3C)CC2)CC1`, the EC50 is 16.6 µM (inactive). As for `Cc1ccccc1-c1nc(CN2CCC(C(=O)NCCCN3CCOCC3)CC2)c(C)o1`, the figure is 6.69 µM; as for `CCN1CCCC1CNC(=O)C1CCN(Cc2nc(-c3cccc(Br)c3)oc2C)CC1` (stereo not drawn), 1.12 µM; as for `Cc1ccc2c(c1)-c1c(cnn1CC(=O)Nc1ccccc1N1CCN(C)CC1)CO2`, 8.06 µM. Turning to `COc1ccc(-c2noc(-c3cc(Cl)ccc3Cl)n2)cc1OC`, the 50% effective concentration (EC50) was 5.7 µM. On to `CN(C)c1ccc(CNC2CC(C)(C)NC(C)(C)C2)cc1`, for which the 50% effective concentration (EC50) was 8.74 µM. With `COC(=O)c1cc(-c2ccccc2)sc1NC(=O)c1cc(C)on1`, the concentration for a half-maximal effect (EC50) is 1.87 µM.

In the case of `Oc1c(CN2CCCCC2)cc(COCc2ccccc2)c2cccnc12`, the EC50 was 3.81 µM. Consider `CCN(CCNC(=O)C1CCN(Cc2nc(-c3ccc(Cl)cc3)oc2C)CC1)c1ccccc1`, for which the EC50 is 2 µM. On to `Cc1cc(N2CCN(C)CC2)nc2ccc(NC(=O)c3ccc(Br)o3)cc12`, for which the EC50 was 2.79 µM.

Usually EC50 stands for the concentration that produces a half-maximal response.

(Values after PubChem BioAssay AID1198 (NMMLSC, 2008).)
